The term ED50 denotes the dose at which the effect has come halfway, by size or by number of responders. For orientation: EC50 means the concentration at which the effect is half-maximal.

We go through two compounds from US7939519B2, “Immunosuppresant compounds and compositions” (Novartis AG, priority 2003, dated 2011).

The test system of one test is blood lymphocytes. Kind of test: Measurement of circulating lymphocytes (blood lymphocyte depletion) in mice. The format is in vivo, Mice (C57bl/6). The note with it: Mus musculus, oral gavage, blood collected 6 and 24 hours after administration, read-out: ED50, effective dose required displaying 50% of blood lymphocyte depletion. Here is the method: C. In Vivo: Screening Assays for Measurement of Blood Lymphocyte Depletion and Assessment of Heart Effect
Measurement of circulating lymphocytes: Compounds are dissolved in DMSO and diluted to obtain a final concentration of 4% DMSO (v/v, final concentration) and then further diluted in a constant volume of Tween80 25%/H2O, v/v. Tween80 25%/H2O (200 μl), 4% DMSO, and FTY720 (10 μg) are included as negative and positive controls, respectively. Mice (C57bl/6 male, 6-10 week-old) are administered 250-300 μL of compound solution orally by gavages under short isoflurane anesthesia.
Blood is collected from the retro-orbital sinus 6 and 24 hours after drug administration under short isoflurane anesthesia. Whole blood samples are subjected to hematology analysis. Peripheral lymphocyte counts are determined using an automated analyzer. Subpopulations of peripheral blood lymphocytes are stained by fluorochrome-conjugated specific antibodies and analyzed using a fluorescent activating cell sorter (Facscalibur). Two mice are used to assess the lymphocyte depletion activity of each compound screened. The result is an ED50, which is defined as the effective dose required displaying 50% of blood lymphocyte depletion.

In the next test the target is T1, human EDG-1 (S1P1) (Homo sapiens, UniProt P21453).
T1 construct: expressed in transfected cells
Kind of test: GTP [γ-35S] binding assay, membranes from CHO cells expressing human EDG-1. The format is biochemical. Particulars: EDG-1 GTP [γ-35S] binding, CHO cell membranes. Here is the method: A. In Vitro: GPCR Activation Assay Measuring GTP [γ-^35S] Binding to Membranes Prepared from Cho Cells Expressing Human EDG Receptors
EDG-1 (S1P1) GTP [γ-^35S] binding assay: Homogenized membranes are prepared from CHO cell clones stably expressing a human EDG-1 N-terminal c-myc tag. Cells are grown in suspension in two 850 cm^2 roller bottles for three or fours days before harvesting. The cells are centrifuged down, washed once with cold PBS, and resuspended in ≦20 ml of Buffer A (20 mM HEPES, pH 7.4, 10 mM EDTA, EDTA-free complete protease inhibitor cocktail [1 tablet/25 ml]). The cell suspension is homogenized on ice, using a Polytron homogenizer at 30000 rpm at three intervals of 15 seconds each. The homogenate is first centrifuged at 2000 rpm on a tabletop low speed centrifuge for 10 minutes. The supernatant, after passing through a cell strainer, is then re-centrifuged at 50,000×g for 25 minutes at 4° C. The pellet is resuspended into buffer B (15% glycerol, 20 mM HEPES, pH 7.4, 0.1 mM EDTA, EDTA-free complete protease inhibitor cocktail [1 tablet/10 ml]). Protein concentration of the prep is determined using the BCA Protein Assay kit (Pierce) using BSA as standard. The membranes are aliquoted and kept frozen at −80° C.
Solutions of test compounds ranging from 10 mM to 0.01 nM are prepared in DMSO. S1P is diluted in 4% BSA solution as positive controls. […]

T1 sequence (P21453 whole entry): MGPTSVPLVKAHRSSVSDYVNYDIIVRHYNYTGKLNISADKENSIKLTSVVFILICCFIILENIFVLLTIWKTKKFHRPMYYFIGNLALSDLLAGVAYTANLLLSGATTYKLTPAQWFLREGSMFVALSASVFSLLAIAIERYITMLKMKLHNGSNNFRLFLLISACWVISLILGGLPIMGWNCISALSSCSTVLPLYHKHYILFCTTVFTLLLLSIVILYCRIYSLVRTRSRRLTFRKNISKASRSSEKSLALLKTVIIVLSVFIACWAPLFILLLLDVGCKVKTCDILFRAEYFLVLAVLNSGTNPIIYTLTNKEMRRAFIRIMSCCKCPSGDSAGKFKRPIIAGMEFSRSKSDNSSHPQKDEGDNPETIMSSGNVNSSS

For the compound `CCc1cc(/C(C)=N/OCc2ccc(C3CCCCC3)c(C(F)(F)F)c2)ccc1CN1CC(C(=O)O)C1` [Example 3, 1-{4-[1-(4-Cyclohexyl-3-trifluoromethyl-benzyloxyimino)-ethyl]-2-ethyl-benzyl}-azetidine-3-carboxylic acid], the 50% effective dose (ED50) in the test with blood lymphocytes turned out to be 0.1 mg/kg. The midpoint of the response on human EDG-1 (S1P1), the EC50, lay at 0.2 nM.

As for `CCc1cc(/C(C)=N/OCc2ccc(C3CCCCC3)c(C(F)(F)F)c2)ccc1CNCCC(=O)O` [Example 2, 3-{4-[1-(4-Cyclohexyl-3-trifluoromethyl-benzyloxyimino)-ethyl]-2-ethyl-benzylamino}-propionic acid], the ED50 with blood lymphocytes amounted to 0.07 mg/kg. The compound further returned a concentration for a half-maximal effect (EC50) on human EDG-1 (S1P1) of 0.8 nM.
